Assay results taken from publication PMC5417683, “Plastidial α-glucan phosphorylase 1 complexes with disproportionating enzyme 1 in Ipomoea batatas storage roots for elevating malto-oligosaccharide metabolism” (PLoS ONE, 2017).

Target: T1, Pho1 (free form) (Ipomoea batatas, UniProt P27598)
T1 construct: native, purified from storage roots; 110-kDa band; 220-kDa homodimer
T1 sequence (P27598 44-955): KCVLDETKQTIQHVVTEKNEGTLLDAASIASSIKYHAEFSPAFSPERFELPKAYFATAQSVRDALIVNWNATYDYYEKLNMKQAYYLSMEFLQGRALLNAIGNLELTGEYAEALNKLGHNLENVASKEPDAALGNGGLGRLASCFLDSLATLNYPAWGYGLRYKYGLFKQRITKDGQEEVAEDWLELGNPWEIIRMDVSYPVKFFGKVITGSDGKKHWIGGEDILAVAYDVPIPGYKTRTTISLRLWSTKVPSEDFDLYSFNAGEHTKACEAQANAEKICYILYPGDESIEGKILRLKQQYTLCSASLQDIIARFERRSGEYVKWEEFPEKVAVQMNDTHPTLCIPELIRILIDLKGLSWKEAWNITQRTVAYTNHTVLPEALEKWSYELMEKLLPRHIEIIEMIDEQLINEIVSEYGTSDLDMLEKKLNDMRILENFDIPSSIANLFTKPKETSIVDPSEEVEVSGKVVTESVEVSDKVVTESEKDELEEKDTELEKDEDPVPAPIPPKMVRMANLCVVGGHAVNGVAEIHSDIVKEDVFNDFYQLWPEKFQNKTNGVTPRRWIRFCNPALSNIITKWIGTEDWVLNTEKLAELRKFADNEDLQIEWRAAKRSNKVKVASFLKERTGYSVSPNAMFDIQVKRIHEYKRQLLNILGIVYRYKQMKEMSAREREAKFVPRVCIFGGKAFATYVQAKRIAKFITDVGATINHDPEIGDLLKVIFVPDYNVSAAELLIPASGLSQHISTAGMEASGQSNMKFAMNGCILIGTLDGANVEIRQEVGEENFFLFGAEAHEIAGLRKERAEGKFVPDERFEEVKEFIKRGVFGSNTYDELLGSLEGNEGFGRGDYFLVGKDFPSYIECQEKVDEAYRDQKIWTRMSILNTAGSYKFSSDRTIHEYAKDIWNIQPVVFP
Test: Glc-1-P production, coupled phosphoglucomutase / Glc-6-P dehydrogenase (NADPH)
Assay type: biochemical
Conditions: 0.5 mM substrate, 0.5 mM inorganic phosphate, 50 mM sodium acetate pH 6.0, 37°C, 1 h; phosphorolysis

`OC[C@H]1O[C@H](O[C@H]2[C@H](O)[C@@H](O)[C@@H](O[C@H]3[C@H](O)[C@@H](O)[C@@H](O[C@H]4[C@H](O)[C@@H](O)[C@@H](O[C@H]5[C@H](O)[C@@H](O)C(O)O[C@@H]5CO)O[C@@H]4CO)O[C@@H]3CO)O[C@@H]2CO)[C@H](O)[C@@H](O)[C@@H]1O` (some centres unmarked) [G5, maltopentaose] was tested, and the “Glc-1-P production, coupled phosphoglucomutase / Glc-6-P dehydrogenase (NADPH)” value was “displayed high catalytic activity with G5, G6, G7, or dextrin to produce Glc-1-P”.

In the case of `OC[C@H]1O[C@H](O[C@H]2[C@H](O)[C@@H](O)[C@@H](O[C@H]3[C@H](O)[C@@H](O)[C@@H](O[C@H]4[C@H](O)[C@@H](O)[C@@H](O[C@H]5[C@H](O)[C@@H](O)[C@@H](O[C@H]6[C@H](O)[C@@H](O)C(O)O[C@@H]6CO)O[C@@H]5CO)O[C@@H]4CO)O[C@@H]3CO)O[C@@H]2CO)[C@H](O)[C@@H](O)[C@@H]1O` (some centres unmarked) [G6, maltohexaose], the “Glc-1-P production, coupled phosphoglucomutase / Glc-6-P dehydrogenase (NADPH)” value is reported as “displayed high catalytic activity with G5, G6, G7, or dextrin to produce Glc-1-P”.
